The source of these data is article PMC12090182, “Repurposing of the RIPK1-Selective Benzo[1,4]oxazepin-4-one Scaffold for the Development of a Type III LIMK1/2 Inhibitor” (ACS Chemical Biology, 2025).

Common to all, as to assay: biochemical
Holding throughout (type): binding

The target of assay [1] is 468 kinases including some pathogenic mutants (Homo sapiens, UniProt P07949, V804M). The note with it: read-out: Percent Control.
The target in assay [2] is 468 kinases including some pathogenic mutants (Homo sapiens, UniProt P27448). The note with it: MARK3 (Entrez MARK3), 100 nM; read-out: Percent Control.
468 kinases including some pathogenic mutants (Homo sapiens, UniProt P27448), sequence (P27448 whole entry, change not shown): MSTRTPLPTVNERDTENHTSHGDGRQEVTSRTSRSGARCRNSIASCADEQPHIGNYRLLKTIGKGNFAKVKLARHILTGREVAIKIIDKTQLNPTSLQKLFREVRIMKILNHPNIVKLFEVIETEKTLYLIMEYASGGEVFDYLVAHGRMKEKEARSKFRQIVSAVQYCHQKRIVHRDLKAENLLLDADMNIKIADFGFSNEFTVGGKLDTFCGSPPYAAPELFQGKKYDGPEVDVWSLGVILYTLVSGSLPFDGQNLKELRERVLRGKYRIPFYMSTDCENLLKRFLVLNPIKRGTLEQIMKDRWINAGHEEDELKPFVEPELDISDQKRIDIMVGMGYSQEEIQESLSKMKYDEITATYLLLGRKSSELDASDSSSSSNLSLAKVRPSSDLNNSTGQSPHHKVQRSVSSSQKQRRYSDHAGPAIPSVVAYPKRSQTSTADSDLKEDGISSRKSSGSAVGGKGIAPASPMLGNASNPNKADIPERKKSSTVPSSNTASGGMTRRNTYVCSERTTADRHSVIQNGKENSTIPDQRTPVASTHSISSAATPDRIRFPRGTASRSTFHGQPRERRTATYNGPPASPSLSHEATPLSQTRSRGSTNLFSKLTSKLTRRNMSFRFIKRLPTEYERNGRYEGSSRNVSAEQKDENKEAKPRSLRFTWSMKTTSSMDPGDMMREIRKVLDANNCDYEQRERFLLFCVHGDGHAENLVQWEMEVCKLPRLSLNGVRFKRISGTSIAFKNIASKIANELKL
In assay [3] the target is 468 kinases including some pathogenic mutants (Homo sapiens, UniProt Q13555). The note with it: CAMK2G (Entrez CAMK2G), 100 nM; read-out: Percent Control.
Assay [4] addresses 468 kinases including some pathogenic mutants (Homo sapiens, UniProt Q14289). The conditions noted are these: PYK2 (Entrez PTK2B), 100 nM; read-out: Percent Control.
Assay [5] deals with 468 kinases including some pathogenic mutants (Homo sapiens, UniProt Q16288). The conditions noted are these: TRKC (Entrez NTRK3), 100 nM; read-out: Percent Control.
468 kinases including some pathogenic mutants (Homo sapiens, UniProt Q16288), sequence (Q16288 32-839, change not shown): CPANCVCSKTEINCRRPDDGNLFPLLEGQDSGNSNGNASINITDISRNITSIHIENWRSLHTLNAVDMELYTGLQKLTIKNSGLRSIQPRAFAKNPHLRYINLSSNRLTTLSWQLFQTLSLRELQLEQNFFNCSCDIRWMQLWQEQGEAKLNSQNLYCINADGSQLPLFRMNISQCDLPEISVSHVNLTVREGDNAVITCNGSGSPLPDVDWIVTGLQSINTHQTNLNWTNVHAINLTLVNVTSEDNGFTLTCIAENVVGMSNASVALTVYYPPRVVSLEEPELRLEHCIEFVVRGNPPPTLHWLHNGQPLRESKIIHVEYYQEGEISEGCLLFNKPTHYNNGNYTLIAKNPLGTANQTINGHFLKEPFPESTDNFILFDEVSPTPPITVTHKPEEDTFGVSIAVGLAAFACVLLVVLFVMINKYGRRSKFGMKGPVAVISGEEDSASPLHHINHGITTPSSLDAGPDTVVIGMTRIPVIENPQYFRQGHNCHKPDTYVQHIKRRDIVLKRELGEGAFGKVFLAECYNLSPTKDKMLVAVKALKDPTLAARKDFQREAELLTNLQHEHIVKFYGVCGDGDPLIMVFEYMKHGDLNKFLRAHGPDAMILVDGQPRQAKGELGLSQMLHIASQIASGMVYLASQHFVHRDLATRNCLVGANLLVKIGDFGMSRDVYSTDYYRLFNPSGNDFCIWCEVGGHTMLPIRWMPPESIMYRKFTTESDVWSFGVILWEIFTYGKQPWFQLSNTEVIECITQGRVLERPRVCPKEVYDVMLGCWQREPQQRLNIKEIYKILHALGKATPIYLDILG
Assay [6] has as its target 468 kinases including some pathogenic mutants (Homo sapiens, UniProt Q9NRM7). The conditions noted are these: LATS2 (Entrez LATS2), 100 nM; read-out: Percent Control.

468 kinases including some pathogenic mutants (Homo sapiens, UniProt Q9NRM7), sequence (Q9NRM7 whole entry, change not shown): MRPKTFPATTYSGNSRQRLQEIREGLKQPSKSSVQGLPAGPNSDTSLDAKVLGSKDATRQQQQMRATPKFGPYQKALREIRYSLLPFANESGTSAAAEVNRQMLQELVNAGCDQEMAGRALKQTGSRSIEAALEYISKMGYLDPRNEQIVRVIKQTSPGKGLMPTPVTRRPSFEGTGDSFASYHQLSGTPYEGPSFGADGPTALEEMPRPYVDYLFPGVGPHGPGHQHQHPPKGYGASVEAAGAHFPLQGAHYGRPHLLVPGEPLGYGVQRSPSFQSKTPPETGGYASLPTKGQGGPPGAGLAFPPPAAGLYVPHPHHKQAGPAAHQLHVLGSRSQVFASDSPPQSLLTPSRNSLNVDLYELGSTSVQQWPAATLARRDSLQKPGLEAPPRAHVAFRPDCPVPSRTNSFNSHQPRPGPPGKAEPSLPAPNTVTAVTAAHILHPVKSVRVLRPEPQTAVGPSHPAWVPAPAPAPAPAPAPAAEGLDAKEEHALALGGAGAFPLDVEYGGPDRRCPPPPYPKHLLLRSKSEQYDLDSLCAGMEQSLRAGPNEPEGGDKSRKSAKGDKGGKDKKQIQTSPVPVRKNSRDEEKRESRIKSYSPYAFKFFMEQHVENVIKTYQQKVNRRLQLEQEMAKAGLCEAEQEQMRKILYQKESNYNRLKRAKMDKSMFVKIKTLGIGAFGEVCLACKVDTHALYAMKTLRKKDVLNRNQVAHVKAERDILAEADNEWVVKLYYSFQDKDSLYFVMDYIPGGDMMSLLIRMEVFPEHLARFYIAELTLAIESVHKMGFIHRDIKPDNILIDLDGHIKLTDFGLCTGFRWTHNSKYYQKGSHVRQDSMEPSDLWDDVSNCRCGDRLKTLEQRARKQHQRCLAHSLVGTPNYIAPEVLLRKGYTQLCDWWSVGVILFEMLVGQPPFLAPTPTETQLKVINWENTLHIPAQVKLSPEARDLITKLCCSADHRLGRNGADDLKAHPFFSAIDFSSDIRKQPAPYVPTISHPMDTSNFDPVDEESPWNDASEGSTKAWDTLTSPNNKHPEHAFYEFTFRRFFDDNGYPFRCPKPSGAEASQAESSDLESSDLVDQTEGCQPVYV
468 kinases including some pathogenic mutants (Homo sapiens, UniProt Q14289), sequence (Q14289 whole entry, change not shown): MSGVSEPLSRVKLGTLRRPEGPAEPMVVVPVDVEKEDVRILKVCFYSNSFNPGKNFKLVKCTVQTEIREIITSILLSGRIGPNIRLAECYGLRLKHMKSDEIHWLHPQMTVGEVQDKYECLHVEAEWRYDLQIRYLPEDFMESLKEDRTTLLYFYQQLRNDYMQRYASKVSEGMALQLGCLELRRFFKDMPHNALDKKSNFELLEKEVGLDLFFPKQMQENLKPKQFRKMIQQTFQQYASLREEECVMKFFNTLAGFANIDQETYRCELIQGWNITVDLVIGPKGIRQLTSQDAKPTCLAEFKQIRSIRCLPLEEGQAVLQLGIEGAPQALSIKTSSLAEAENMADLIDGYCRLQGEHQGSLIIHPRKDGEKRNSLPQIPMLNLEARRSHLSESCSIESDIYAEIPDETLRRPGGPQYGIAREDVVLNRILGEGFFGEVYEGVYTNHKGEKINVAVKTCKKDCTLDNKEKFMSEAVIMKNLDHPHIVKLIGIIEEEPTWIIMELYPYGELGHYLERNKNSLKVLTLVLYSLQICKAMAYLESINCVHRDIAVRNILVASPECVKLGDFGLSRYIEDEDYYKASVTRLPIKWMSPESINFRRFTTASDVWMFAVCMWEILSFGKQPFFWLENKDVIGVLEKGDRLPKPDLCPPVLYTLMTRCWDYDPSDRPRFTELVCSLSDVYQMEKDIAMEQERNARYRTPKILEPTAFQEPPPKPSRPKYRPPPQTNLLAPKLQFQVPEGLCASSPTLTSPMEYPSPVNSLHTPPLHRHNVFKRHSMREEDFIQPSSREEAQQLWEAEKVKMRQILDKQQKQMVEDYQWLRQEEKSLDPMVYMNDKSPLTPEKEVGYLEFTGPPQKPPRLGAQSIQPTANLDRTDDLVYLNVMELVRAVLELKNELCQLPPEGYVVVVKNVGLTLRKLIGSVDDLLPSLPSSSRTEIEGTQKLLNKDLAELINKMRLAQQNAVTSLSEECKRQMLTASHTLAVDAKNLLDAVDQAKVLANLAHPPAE
468 kinases including some pathogenic mutants (Homo sapiens, UniProt P07949, V804M), sequence (P07949 29-1114 V804M): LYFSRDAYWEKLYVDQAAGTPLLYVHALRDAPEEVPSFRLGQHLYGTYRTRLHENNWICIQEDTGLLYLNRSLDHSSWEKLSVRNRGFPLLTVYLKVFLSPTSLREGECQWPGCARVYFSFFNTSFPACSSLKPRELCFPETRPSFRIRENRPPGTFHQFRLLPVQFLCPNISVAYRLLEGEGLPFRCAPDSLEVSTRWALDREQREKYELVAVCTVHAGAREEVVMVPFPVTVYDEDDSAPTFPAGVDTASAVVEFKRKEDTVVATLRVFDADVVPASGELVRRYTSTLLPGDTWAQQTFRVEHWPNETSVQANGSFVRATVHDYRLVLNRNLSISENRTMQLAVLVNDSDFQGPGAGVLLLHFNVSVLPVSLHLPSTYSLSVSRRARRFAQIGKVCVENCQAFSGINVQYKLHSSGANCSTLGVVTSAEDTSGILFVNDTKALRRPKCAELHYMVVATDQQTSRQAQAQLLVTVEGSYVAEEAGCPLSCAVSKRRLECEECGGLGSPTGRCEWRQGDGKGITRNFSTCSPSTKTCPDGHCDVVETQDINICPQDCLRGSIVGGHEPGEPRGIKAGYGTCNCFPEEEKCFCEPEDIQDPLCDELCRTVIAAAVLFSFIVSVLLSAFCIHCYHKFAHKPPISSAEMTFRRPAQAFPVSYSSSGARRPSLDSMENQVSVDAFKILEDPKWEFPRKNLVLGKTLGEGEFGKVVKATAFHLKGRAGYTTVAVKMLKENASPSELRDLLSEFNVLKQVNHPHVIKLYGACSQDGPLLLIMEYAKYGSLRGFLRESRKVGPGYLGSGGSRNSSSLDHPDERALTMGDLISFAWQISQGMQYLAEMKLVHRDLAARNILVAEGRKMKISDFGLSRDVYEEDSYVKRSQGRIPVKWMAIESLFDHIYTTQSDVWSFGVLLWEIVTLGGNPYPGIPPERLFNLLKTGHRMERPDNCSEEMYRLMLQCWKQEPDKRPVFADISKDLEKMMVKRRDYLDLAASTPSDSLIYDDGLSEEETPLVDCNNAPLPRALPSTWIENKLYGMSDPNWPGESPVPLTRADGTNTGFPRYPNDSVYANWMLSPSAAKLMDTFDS

For the molecule `CN1C(=O)[C@@H](N2CCc3c(nn(Cc4ccccc4)c3C(N)=O)C2=O)COc2cc(Cl)ccc21` [Compound 10, (S)-2-benzyl-6-(8-chloro-5-methyl-4-oxo-2,3,4,5-tetrahydrobenzo[b][1,4]oxazepin-3-yl)-7-oxo-4,5,6,7-tetrahydro-2H-pyrazolo[3,4-c]pyridine-3-carboxamide], the remaining activity at 0.1 µM is 87% in assay [1]; 100% in assay [2]; 78% in assay [3]; 88% in assay [4]; 79% in assay [5]; 68% in assay [6].
